From ChEMBL document CHEMBL1124950, “Synthesis and cardiotonic activity of novel biimidazoles” (J Med Chem, 1990)
Activity calls are given as the source filed them. The calls are words filed in the database; no cut-off is given here.

Columns and labels:
Canis familiaris [1] = assay: Peak percent change in contractile force produced by the administration of 1 mg/kg intravenously in anesthetized dog; type: functional, Canis lupus familiaris; details: route intravenous
Rattus norvegicus [2] = assay: 25% increase in left ventricular contractility (dP/dtmax) on iv administration in anesthetized rat; not active; type: functional, organism-based; details: Heart left ventricle
Canis familiaris [3] = assay: 25% increase in left ventricular contractility (dP/dtmax) after iv administration in anesthetized dog; Not active; type: functional; details: Canis lupus familiaris, Heart left ventricle
Canis lupus familiaris = assay: 25% increase in left ventricular contractility (dP/dtmax) after iv administration in anesthetized dog; details: Heart left ventricle
Rattus norvegicus [4] = assay: 25% increase in left ventricular contractility (dP/dtmax) after iv administration in anesthetized rat; type: functional; details: Heart left ventricle
Canis familiaris [5] = assay: Peak percent change in contractile force produced by the administration of 1 mg/kg intravenously in anesthetized dog; Not active; details: Canis lupus familiaris
Rattus norvegicus [6] = assay: 25% increase in left ventricular contractility (dP/dtmax) on iv administration in anesthetized rat; type: functional; details: Heart left ventricle
Canis familiaris [7] = assay: Inotropic effect in anesthetized dog; type: functional; details: Canis lupus familiaris
Phosphodiesterase 4 [8] = target: T1, Phosphodiesterase 4 (Homo sapiens, UniProt P27815+Q08499+Q07343+Q08493); assay: Inhibition of canine kidney Phosphodiesterase 4 at 150 uM; details: Canis lupus familiaris, target entry is the homologue from another species
Canis familiaris [9] = assay: Peak percent change in contractile force produced after iv administration at 0.3 mg/kg in anesthetized dog; type: functional, Canis lupus familiaris
Phosphodiesterase 4 [10] = target: T1, Phosphodiesterase 4; assay: (§1) Inhibition of canine kidney Phosphodiesterase 4; type: protein assay; details: Canis lupus familiaris; target entry is the homologue from another species; concentration not given here
Canis familiaris [11] = assay: Peak percent change in contractile force produced after iv administration at 0.3 mg/kg in ansthetetized dog; type: functional, Canis lupus familiaris
Rattus norvegicus [12] = assay: 25% increase in left ventricular contractility (dP/dtmax) on iv administration in anesthetized rat; Not active; type: functional, organism-based; details: Heart left ventricle
Rattus norvegicus [13] = assay: 25% increase in left ventricular (dP/dtmax) after iv administration in anesthetized rat; Not active at 3 mg/kg; type: functional, organism-based; set-up: dose 3 mg/kg; details: Heart left ventricle
Canis familiaris [14] = assay: 25% increase in left ventricular contractility (dP/dtmax) in anesthetized dog on iv administration; type: functional; details: Canis lupus familiaris, Heart left ventricle
Phosphodiesterase 4 [15] = target: T1, Phosphodiesterase 4; assay: as §1; type: protein assay, Canis lupus familiaris; details: target entry is the homologue from another species
Phosphodiesterase 4 [16] = target: T1, Phosphodiesterase 4; assay: Inhibition of canine heart Phosphodiesterase 4; type: protein assay, Canis lupus familiaris; details: target entry is the homologue from another species
Canis familiaris [17] = assay: Peak percent change in contractile force produced after iv administration at 1 mg/kg in anesthetized dog
Canis familiaris [18] = assay: Increased heart rate in conscious dogs on oral administration at 10 mg/kg; type: functional, Canis lupus familiaris
Canis familiaris [19] = assay: Inotropic activity in anesthetized dog; type: functional; details: Canis lupus familiaris
Canis familiaris [20] = assay: Peak percent change in contractile force produced by the administration of 1 mg/kg intravenously in anesthetized dog; not active; type: functional, organism-based; set-up: dose 1 mg/kg; details: Canis lupus familiaris; at 1 mg/kg
Rattus norvegicus [21] = assay: 25% increase in left ventricular contractility (dP/dtmax) on iv administration in anesthetized rat; Not active at 3 mg/kg; type: functional, organism-based; set-up: dose 3 mg/kg; details: Heart left ventricle
Canis familiaris [22] = assay: Peak percent change in contractile force produced by 1 mg/kg administered intravenously in anesthetized dog; type: functional, Canis lupus familiaris; details: route intravenous
Canis familiaris [23] = assay: 25% increase in left ventricular contractility (dP/dtmax) on iv administration in anesthetized dog; type: functional; details: Canis lupus familiaris, Heart left ventricle
Rattus norvegicus [24] = assay: Peak percent change in contractile force produced by the administration of 1 mg/kg intravenously in ansthetetized rat; type: functional; details: route intravenous

Structure (SMILES): C=Cn1ccnc1-c1nc(C#N)c[nH]1
- Change (Canis familiaris [1]): 41%

Structure (SMILES): NCc1c[nH]c(-c2ncc[nH]2)n1
- ED25 (Rattus norvegicus [2]): inactive

Structure (SMILES): Cc1c[nH]c(-c2nc(C#N)c[nH]2)n1
- ED25 (Canis familiaris [3]): 0.63 mg/kg

Structure (SMILES): N#Cc1c[nH]c(-c2nc(Br)c[nH]2)n1
- ED25 (Canis lupus familiaris): 0.2 mg/kg

Structure (SMILES): Clc1c[nH]c(-c2nc(Cl)c[nH]2)n1
- ED25 (Rattus norvegicus [4]): 0.7 mg/kg

Structure (SMILES): CN(C)Cc1ccc(-c2nc(C#N)c[nH]2)o1
- Change (Canis familiaris [5]): inactive

Structure (SMILES): CSc1ccc(C(=O)c2[nH]c(=O)[nH]c2C)cc1 [ENOXIMONE]
- Change (Canis familiaris [1]): 73%
- ED25 (Rattus norvegicus [6]): 1.4 mg/kg
- ED25 (Canis familiaris [7]): 0.46 mg/kg
- inhibition (Phosphodiesterase 4 [8]): 34%

Structure (SMILES): C[C@@H]1C(=O)NC2=Nc3cccc(Cl)c3CN21 [QUAZINONE]
- Change (Canis familiaris [9]): 47%

Structure (SMILES): Nc1cc(-c2ccncc2)c[nH]c1=O [INAMRINONE]
- inhibition (Phosphodiesterase 4 [10]): 24%
- Change (Canis familiaris [11]): 19%

Structure (SMILES): CSc1c[nH]c(-c2ncc[nH]2)n1
- Change (Canis familiaris [1]): 4%

Structure (SMILES): FC(F)(F)c1c[nH]c(-c2ncc[nH]2)n1
- ED25 (Rattus norvegicus [12]): inactive

Structure (SMILES): Cn1c(C#N)cnc1-c1ncc[nH]1
- Change (Canis familiaris [1]): 3%

Structure (SMILES): N#Cc1c[nH]c(-c2nccn2Cc2ccccc2)n1
- Change (Canis familiaris [1]): 2%

Structure (SMILES): FC(F)(F)c1c[nH]c(-c2nc(Br)c[nH]2)n1
- ED25 (Rattus norvegicus [13]): inactive

Structure (SMILES): FC(F)(F)c1c[nH]c(-c2c[nH]cn2)n1
- Change (Canis familiaris [1]): 0%

Structure (SMILES): Cn1ccnc1-c1nc(C#N)c[nH]1
- Change (Canis familiaris [1]): 29%

Structure (SMILES): Cn1c(Cl)cnc1-c1nc(C#N)c[nH]1
- Change (Canis familiaris [1]): 11%

Structure (SMILES): O=Cc1c[nH]c(-c2nc(C=O)c[nH]2)n1
- ED25 (Rattus norvegicus [13]): inactive

Structure (SMILES): N#Cc1c[nH]c(-c2nc(C#N)c[nH]2)n1
- ED25 (Canis familiaris [14]): 0.18 mg/kg

Structure (SMILES): COC(=O)c1c[nH]c(-c2ncc[nH]2)n1
- ED25 (Rattus norvegicus [2]): inactive

Structure (SMILES): Cc1[nH]c(=O)c(C#N)cc1-c1ccncc1 [MILRINONE]
- Change (Canis familiaris [1]): 52%
- ED25 (Rattus norvegicus [6]): 0.3 mg/kg
- ED25 (Canis familiaris [7]): 0.06 mg/kg
- Change (Canis familiaris [11]): 110%

Structure (SMILES): N#Cc1c[nH]c(-c2csc(NC(=N)N)n2)n1
- Change (Canis familiaris [5]): inactive

Structure (SMILES): N#Cc1c[nH]c(-c2nc(-c3ccc(C(F)(F)F)cc3)c[nH]2)n1
- ED25 (Canis familiaris [14]): 0.26 mg/kg

Structure (SMILES): N#Cc1c[nH]c(-c2ncc[nH]2)n1
- IC50 (Phosphodiesterase 4 [15]): 339 µM
- IC50 (Phosphodiesterase 4 [16]): 36.7 µM
- Change (Canis familiaris [17]): 60%
- Increase in heart rate (Canis familiaris [18]): 45 beats min-1
- ED25 (Canis familiaris [19]): 0.16 mg/kg

Structure (SMILES): N#Cc1c[nH]c(-c2cccnc2)n1
- ED25 (Rattus norvegicus [2]): inactive
- Change (Canis familiaris [1]): 31%

Structure (SMILES): N#Cc1c[nH]c(-c2ccc(-n3ccnc3)cc2)n1
- Change (Canis familiaris [1]): 17%

Structure (SMILES): Clc1c[nH]c(-c2ncc[nH]2)n1
- ED25 (Rattus norvegicus [13]): inactive

Structure (SMILES): N#Cc1[nH]cnc1-c1ncc[nH]1
- Change (Canis familiaris [1]): 0%

Structure (SMILES): N#Cc1c[nH]c(-c2nccn2-c2ccccc2)n1
- Change (Canis familiaris [1]): 0%

Structure (SMILES): OCc1c[nH]c(-c2ncc[nH]2)n1
- Change (Canis familiaris [1]): 0%

Structure (SMILES): Brc1c[nH]c(-c2ncc[nH]2)n1
- ED25 (Rattus norvegicus [4]): 5.5 mg/kg

Structure (SMILES): N#Cc1c[nH]c(-c2ccc(-c3nc(C#N)c[nH]3)cc2)n1
- Change (Canis familiaris [1]): 8%

Structure (SMILES): N#Cc1c[nH]c(-c2cn[nH]c2)n1
- ED25 (Rattus norvegicus [2]): inactive
- Change (Canis familiaris [20]): inactive

Structure (SMILES): N#Cc1c[nH]c(-c2ccco2)n1
- ED25 (Rattus norvegicus [2]): inactive

Structure (SMILES): Cn1cc(C#N)nc1-c1ncc[nH]1
- ED25 (Canis familiaris [14]): 0.17 mg/kg

Structure (SMILES): N#Cc1c[nH]c(-c2nc(C(F)(F)F)c[nH]2)n1
- ED25 (Canis familiaris [14]): 0.33 mg/kg

Structure (SMILES): C[Si](C)(C)CCOCn1ccnc1-c1nccn1COCC[Si](C)(C)C
- ED25 (Rattus norvegicus [21]): inactive

Structure (SMILES): COc1ccc(-c2c[nH]c(-c3nc(C#N)c[nH]3)n2)cc1
- ED25 (Canis familiaris [14]): 0.36 mg/kg
- Change (Canis familiaris [1]): 106%

Structure (SMILES): CCn1ccnc1-c1nc(C#N)c[nH]1
- Change (Canis familiaris [1]): 41%

Structure (SMILES): Cc1c[nH]c(-c2ncc[nH]2)n1
- ED25 (Rattus norvegicus [2]): inactive

Structure (SMILES): O=C(O)c1c[nH]c(-c2ncc[nH]2)n1
- ED25 (Rattus norvegicus [2]): inactive

Structure (SMILES): Cc1ccsc1-c1nc(C#N)c[nH]1
- ED25 (Rattus norvegicus [2]): inactive

Structure (SMILES): N#Cc1c[nH]c(-c2nc(Br)c(Br)[nH]2)n1
- Change (Canis familiaris [22]): 96%

Structure (SMILES): N#Cc1c[nH]c(-c2ccc(Br)s2)n1
- ED25 (Rattus norvegicus [2]): inactive

Structure (SMILES): NC(=O)c1c[nH]c(-c2ncc[nH]2)n1
- ED25 (Rattus norvegicus [2]): inactive

Structure (SMILES): O=Cc1c[nH]c(-c2ncc[nH]2)n1
- ED25 (Rattus norvegicus [13]): inactive

Structure (SMILES): c1c[nH]c(-c2ncc[nH]2)n1
- ED25 (Rattus norvegicus [6]): 0.24 mg/kg

Structure (SMILES): C[S+]([O-])c1c[nH]c(-c2ncc[nH]2)n1 (configuration not stated)
- Change (Canis familiaris [1]): 1%

Structure (SMILES): Brc1c[nH]c(-c2nc(Br)c[nH]2)n1
- ED25 (Rattus norvegicus [13]): inactive

Structure (SMILES): N#Cc1c[nH]c(-c2nc(Cl)c[nH]2)n1
- Change (Canis familiaris [22]): 95%

Structure (SMILES): N#Cc1c[nH]c(-c2cccs2)n1
- ED25 (Rattus norvegicus [2]): inactive

Structure (SMILES): N#Cc1c[nH]c(-c2c[nH]cn2)n1
- Change (Canis familiaris [1]): 25%

Structure (SMILES): N#Cc1c[nH]c(-c2nc(-c3ccccc3)c[nH]2)n1
- ED25 (Canis familiaris [23]): 0.89 mg/kg

Structure (SMILES): N#Cc1c[nH]c(-c2cc[nH]n2)n1
- ED25 (Rattus norvegicus [2]): inactive
- Change (Canis familiaris [1]): -4%

Structure (SMILES): Cn1ccnc1-c1ncc(C#N)n1C
- Change (Rattus norvegicus [24]): 13%

Structure (SMILES): c1c[nH]c(-c2nc(-c3nn[nH]n3)c[nH]2)n1
- ED25 (Rattus norvegicus [2]): inactive
- Change (Canis familiaris [1]): 0%
